Data as given in the NIST ThermoML archive (doi:10.1021/acs.jced.9b00396).
± gives the expanded uncertainty stated by the source.

Settings: Liquid; for speed of sound: Frequency=3 MHz, Single path-length method; for mass density: Vibrating tube method

C[S+](C)[O-] [dimethyl sulfoxide]
Settings | mass density [kg/m3] | speed of sound [m/s]
293.15 K, 100 kPa | 1100.4 ± 0.9 | 1502 ± 3
293.15 K, 500 kPa | 1100 ± 1 | –
293.15 K, 1000 kPa | 1101 ± 1 | –
293.15 K, 2500 kPa | 1102 ± 1 | –
293.15 K, 5000 kPa | 1103 ± 1 | –
293.15 K, 7500 kPa | 1104 ± 1 | –
293.15 K, 10000 kPa | 1106 ± 1 | –
293.15 K, 12500 kPa | 1107 ± 1 | –
293.15 K, 15000 kPa | 1108 ± 1 | –
293.15 K, 17500 kPa | 1110 ± 1 | –
293.15 K, 20000 kPa | 1111 ± 1 | –
293.15 K, 22500 kPa | 1112 ± 1 | –
293.15 K, 25000 kPa | 1114 ± 1 | –
293.15 K, 27500 kPa | 1115 ± 1 | –
293.15 K, 30000 kPa | 1116 ± 1 | –
293.15 K, 32500 kPa | 1117 ± 1 | –
293.15 K, 35000 kPa | 1119 ± 1 | –
293.15 K, 37500 kPa | 1120 ± 1 | –
298.15 K, 100 kPa | 1095.4 ± 0.9 | 1485 ± 3
298.15 K, 500 kPa | 1095 ± 1 | –
298.15 K, 1000 kPa | 1096 ± 1 | –
298.15 K, 2500 kPa | 1096 ± 1 | –
298.15 K, 5000 kPa | 1098 ± 1 | –
298.15 K, 7500 kPa | 1099 ± 1 | –
298.15 K, 10000 kPa | 1101 ± 1 | –
298.15 K, 12500 kPa | 1102 ± 1 | –
298.15 K, 15000 kPa | 1103 ± 1 | –
298.15 K, 17500 kPa | 1105 ± 1 | –
298.15 K, 20000 kPa | 1106 ± 1 | –
298.15 K, 22500 kPa | 1107 ± 1 | –
298.15 K, 25000 kPa | 1109 ± 1 | –
298.15 K, 27500 kPa | 1110 ± 1 | –
298.15 K, 30000 kPa | 1111 ± 1 | –
298.15 K, 32500 kPa | 1113 ± 1 | –
298.15 K, 35000 kPa | 1114 ± 1 | –
298.15 K, 37500 kPa | 1115 ± 1 | –
313.15 K, 100 kPa | 1080.3 ± 0.9 | 1435 ± 3
313.15 K, 500 kPa | 1080 ± 1 | –
313.15 K, 1000 kPa | 1080 ± 1 | –
313.15 K, 2500 kPa | 1081 ± 1 | –
313.15 K, 5000 kPa | 1083 ± 1 | –
313.15 K, 7500 kPa | 1084 ± 1 | –
313.15 K, 10000 kPa | 1086 ± 1 | –
313.15 K, 12500 kPa | 1087 ± 1 | –
313.15 K, 15000 kPa | 1089 ± 1 | –
313.15 K, 17500 kPa | 1090 ± 1 | –
313.15 K, 20000 kPa | 1092 ± 1 | –
313.15 K, 22500 kPa | 1093 ± 1 | –
313.15 K, 25000 kPa | 1095 ± 1 | –
313.15 K, 27500 kPa | 1096 ± 1 | –
313.15 K, 30000 kPa | 1097 ± 1 | –
313.15 K, 32500 kPa | 1099 ± 1 | –
313.15 K, 35000 kPa | 1100 ± 1 | –
313.15 K, 37500 kPa | 1101 ± 1 | –
333.15 K, 100 kPa | 1060.2 ± 0.9 | 1368 ± 3
333.15 K, 500 kPa | 1060 ± 1 | –
333.15 K, 1000 kPa | 1060 ± 1 | –
333.15 K, 2500 kPa | 1061 ± 1 | –
333.15 K, 5000 kPa | 1063 ± 1 | –
333.15 K, 7500 kPa | 1065 ± 1 | –
333.15 K, 10000 kPa | 1066 ± 1 | –
333.15 K, 12500 kPa | 1068 ± 1 | –
333.15 K, 15000 kPa | 1070 ± 1 | –
333.15 K, 17500 kPa | 1071 ± 1 | –
333.15 K, 20000 kPa | 1073 ± 1 | –
333.15 K, 22500 kPa | 1074 ± 1 | –
333.15 K, 25000 kPa | 1076 ± 1 | –
333.15 K, 27500 kPa | 1077 ± 1 | –
333.15 K, 30000 kPa | 1079 ± 1 | –
333.15 K, 32500 kPa | 1080 ± 1 | –
333.15 K, 35000 kPa | 1082 ± 1 | –
333.15 K, 37500 kPa | 1083 ± 1 | –
353.15 K, 500 kPa | 1040 ± 1 | –
353.15 K, 1000 kPa | 1040 ± 1 | –
353.15 K, 2500 kPa | 1042 ± 1 | –
353.15 K, 5000 kPa | 1043 ± 1 | –
353.15 K, 7500 kPa | 1045 ± 1 | –
353.15 K, 10000 kPa | 1047 ± 1 | –
353.15 K, 12500 kPa | 1049 ± 1 | –
353.15 K, 15000 kPa | 1050 ± 1 | –
353.15 K, 17500 kPa | 1052 ± 1 | –
353.15 K, 20000 kPa | 1054 ± 1 | –
353.15 K, 22500 kPa | 1055 ± 1 | –
353.15 K, 25000 kPa | 1057 ± 1 | –
353.15 K, 27500 kPa | 1059 ± 1 | –
353.15 K, 30000 kPa | 1060 ± 1 | –
353.15 K, 32500 kPa | 1062 ± 1 | –
353.15 K, 35000 kPa | 1063 ± 1 | –
353.15 K, 37500 kPa | 1065 ± 1 | –
373.15 K, 500 kPa | 1020 ± 1 | –
373.15 K, 1000 kPa | 1020 ± 1 | –
373.15 K, 2500 kPa | 1022 ± 1 | –
373.15 K, 5000 kPa | 1024 ± 1 | –
373.15 K, 7500 kPa | 1026 ± 1 | –
373.15 K, 10000 kPa | 1027 ± 1 | –
373.15 K, 12500 kPa | 1029 ± 1 | –
373.15 K, 15000 kPa | 1031 ± 1 | –
373.15 K, 17500 kPa | 1033 ± 1 | –
373.15 K, 20000 kPa | 1035 ± 1 | –
373.15 K, 22500 kPa | 1037 ± 1 | –
373.15 K, 25000 kPa | 1038 ± 1 | –
373.15 K, 27500 kPa | 1040 ± 1 | –
373.15 K, 30000 kPa | 1042 ± 1 | –
373.15 K, 32500 kPa | 1044 ± 1 | –
373.15 K, 35000 kPa | 1045 ± 1 | –
373.15 K, 37500 kPa | 1047 ± 1 | –
393.15 K, 500 kPa | 999 ± 1 | –
393.15 K, 1000 kPa | 1000 ± 1 | –
393.15 K, 2500 kPa | 1001 ± 1 | –
393.15 K, 5000 kPa | 1004 ± 1 | –
393.15 K, 7500 kPa | 1006 ± 1 | –
393.15 K, 10000 kPa | 1008 ± 1 | –
393.15 K, 12500 kPa | 1010 ± 1 | –
393.15 K, 15000 kPa | 1012 ± 1 | –
393.15 K, 17500 kPa | 1014 ± 1 | –
393.15 K, 20000 kPa | 1016 ± 1 | –
393.15 K, 22500 kPa | 1018 ± 1 | –
393.15 K, 25000 kPa | 1020 ± 1 | –
393.15 K, 27500 kPa | 1022 ± 1 | –
393.15 K, 30000 kPa | 1024 ± 1 | –
393.15 K, 32500 kPa | 1025 ± 1 | –
393.15 K, 35000 kPa | 1027 ± 1 | –
393.15 K, 37500 kPa | 1029 ± 1 | –
413.15 K, 500 kPa | 979 ± 1 | –
413.15 K, 1000 kPa | 979 ± 1 | –
413.15 K, 2500 kPa | 981 ± 1 | –
413.15 K, 5000 kPa | 983 ± 1 | –
413.15 K, 7500 kPa | 986 ± 1 | –
413.15 K, 10000 kPa | 988 ± 1 | –
413.15 K, 12500 kPa | 990 ± 1 | –
413.15 K, 15000 kPa | 993 ± 1 | –
413.15 K, 17500 kPa | 995 ± 1 | –
413.15 K, 20000 kPa | 997 ± 1 | –
413.15 K, 22500 kPa | 999 ± 1 | –
413.15 K, 25000 kPa | 1001 ± 1 | –
413.15 K, 27500 kPa | 1003 ± 1 | –
413.15 K, 30000 kPa | 1005 ± 1 | –
413.15 K, 32500 kPa | 1007 ± 1 | –
413.15 K, 35000 kPa | 1009 ± 1 | –
413.15 K, 37500 kPa | 1011 ± 1 | –
433.15 K, 500 kPa | 958 ± 1 | –
433.15 K, 1000 kPa | 958 ± 1 | –
433.15 K, 2500 kPa | 960 ± 1 | –
433.15 K, 5000 kPa | 963 ± 1 | –
433.15 K, 7500 kPa | 966 ± 1 | –
433.15 K, 10000 kPa | 968 ± 1 | –
433.15 K, 12500 kPa | 971 ± 1 | –
433.15 K, 15000 kPa | 973 ± 1 | –
433.15 K, 17500 kPa | 976 ± 1 | –
433.15 K, 20000 kPa | 978 ± 1 | –
433.15 K, 22500 kPa | 980 ± 1 | –
433.15 K, 25000 kPa | 983 ± 1 | –
433.15 K, 27500 kPa | 985 ± 1 | –
433.15 K, 30000 kPa | 987 ± 1 | –
433.15 K, 32500 kPa | 989 ± 1 | –
433.15 K, 35000 kPa | 991 ± 1 | –
433.15 K, 37500 kPa | 993 ± 1 | –
453.15 K, 500 kPa | 936 ± 1 | –
453.15 K, 1000 kPa | 937 ± 1 | –
453.15 K, 2500 kPa | 939 ± 1 | –
453.15 K, 5000 kPa | 942 ± 1 | –
453.15 K, 7500 kPa | 945 ± 1 | –
453.15 K, 10000 kPa | 948 ± 1 | –
453.15 K, 12500 kPa | 951 ± 1 | –
453.15 K, 15000 kPa | 953 ± 1 | –
453.15 K, 17500 kPa | 956 ± 1 | –
453.15 K, 20000 kPa | 959 ± 1 | –
453.15 K, 22500 kPa | 961 ± 1 | –
453.15 K, 25000 kPa | 964 ± 1 | –
453.15 K, 27500 kPa | 966 ± 1 | –
453.15 K, 30000 kPa | 969 ± 1 | –
453.15 K, 32500 kPa | 971 ± 1 | –
453.15 K, 35000 kPa | 973 ± 1 | –
453.15 K, 37500 kPa | 976 ± 1 | –
473.15 K, 500 kPa | 914 ± 1 | –
473.15 K, 1000 kPa | 915 ± 1 | –
473.15 K, 2500 kPa | 917 ± 1 | –
473.15 K, 5000 kPa | 921 ± 1 | –
473.15 K, 7500 kPa | 924 ± 1 | –
473.15 K, 10000 kPa | 927 ± 1 | –
473.15 K, 12500 kPa | 930 ± 1 | –
473.15 K, 15000 kPa | 933 ± 1 | –
473.15 K, 17500 kPa | 936 ± 1 | –
473.15 K, 20000 kPa | 939 ± 1 | –
473.15 K, 22500 kPa | 942 ± 1 | –
473.15 K, 25000 kPa | 945 ± 1 | –
473.15 K, 27500 kPa | 948 ± 1 | –
473.15 K, 30000 kPa | 950 ± 1 | –
473.15 K, 32500 kPa | 953 ± 1 | –
473.15 K, 35000 kPa | 955 ± 1 | –
473.15 K, 37500 kPa | 958 ± 1 | –
